US11447466B2, “Substituted indole compounds useful as inhibitors of TLR7/8/9” (BRISTOL-MYERS SQUIBB COMPANY, priority 2017, dated 2022)

Columns and labels:
Assay type in all cases: cell-based
human TLR9 = target: T1, human TLR9 (Homo sapiens, UniProt Q9NR96); experiment: TLR9 inhibition reporter assay (HEK-Blue SEAP reporter, ODN2006 stimulation); details: HEK-Blue cells overexpressing human TLR9, SEAP reporter, ODN2006 5 nM, 22 hour incubation
T1 construct: host or cells: HEK-Blue cells
T1 sequence (Q9NR96 26-1032): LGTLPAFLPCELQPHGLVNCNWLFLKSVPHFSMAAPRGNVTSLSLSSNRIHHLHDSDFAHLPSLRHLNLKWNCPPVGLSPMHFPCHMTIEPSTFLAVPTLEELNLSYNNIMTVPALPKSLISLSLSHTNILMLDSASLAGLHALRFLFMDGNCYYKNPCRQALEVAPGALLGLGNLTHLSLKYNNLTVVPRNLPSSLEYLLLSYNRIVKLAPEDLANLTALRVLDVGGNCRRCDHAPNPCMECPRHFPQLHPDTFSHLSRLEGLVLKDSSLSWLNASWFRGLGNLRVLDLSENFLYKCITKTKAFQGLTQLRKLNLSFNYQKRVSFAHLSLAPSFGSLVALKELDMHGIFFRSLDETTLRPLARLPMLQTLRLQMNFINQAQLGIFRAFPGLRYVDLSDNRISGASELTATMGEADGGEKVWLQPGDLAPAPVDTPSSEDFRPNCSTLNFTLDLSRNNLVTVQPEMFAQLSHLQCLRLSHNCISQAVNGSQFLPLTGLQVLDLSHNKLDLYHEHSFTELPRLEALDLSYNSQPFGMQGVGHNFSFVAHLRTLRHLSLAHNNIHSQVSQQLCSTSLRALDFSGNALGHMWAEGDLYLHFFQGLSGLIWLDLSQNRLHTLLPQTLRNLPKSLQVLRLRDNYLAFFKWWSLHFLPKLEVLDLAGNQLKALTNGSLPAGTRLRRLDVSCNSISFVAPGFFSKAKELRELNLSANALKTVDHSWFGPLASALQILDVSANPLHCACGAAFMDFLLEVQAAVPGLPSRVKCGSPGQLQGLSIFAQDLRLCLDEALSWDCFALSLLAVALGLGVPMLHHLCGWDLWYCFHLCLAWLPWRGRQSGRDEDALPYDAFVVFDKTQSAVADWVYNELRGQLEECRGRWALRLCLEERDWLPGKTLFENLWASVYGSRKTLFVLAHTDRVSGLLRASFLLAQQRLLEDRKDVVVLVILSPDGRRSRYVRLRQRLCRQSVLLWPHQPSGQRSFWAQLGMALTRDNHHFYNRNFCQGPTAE
How it was run: (§1)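 Screening used HEK-Blue cells overexpressing one human TLR (7, 8 or 9) and an IFN-β minimal promoter–NF-κB/AP-1 SEAP construct. Stimulation lasted 22 h at 37 °C with receptor-specific agonist: gardiquimod, R848 or ODN2006 at 7.5 μM, 15.9 μM and 5 nM.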

human TLR7 = target: T2, human TLR7 (Homo sapiens, UniProt Q9NYK1); experiment: TLR7 inhibition reporter assay (HEK-Blue SEAP reporter, gardiquimod stimulation); details: HEK-Blue cells overexpressing human TLR7, SEAP reporter, gardiquimod 7.5 μM, 22 hour incubation
T2 construct: host or cells: HEK-Blue cells
T2 sequence (Q9NYK1 27-1049): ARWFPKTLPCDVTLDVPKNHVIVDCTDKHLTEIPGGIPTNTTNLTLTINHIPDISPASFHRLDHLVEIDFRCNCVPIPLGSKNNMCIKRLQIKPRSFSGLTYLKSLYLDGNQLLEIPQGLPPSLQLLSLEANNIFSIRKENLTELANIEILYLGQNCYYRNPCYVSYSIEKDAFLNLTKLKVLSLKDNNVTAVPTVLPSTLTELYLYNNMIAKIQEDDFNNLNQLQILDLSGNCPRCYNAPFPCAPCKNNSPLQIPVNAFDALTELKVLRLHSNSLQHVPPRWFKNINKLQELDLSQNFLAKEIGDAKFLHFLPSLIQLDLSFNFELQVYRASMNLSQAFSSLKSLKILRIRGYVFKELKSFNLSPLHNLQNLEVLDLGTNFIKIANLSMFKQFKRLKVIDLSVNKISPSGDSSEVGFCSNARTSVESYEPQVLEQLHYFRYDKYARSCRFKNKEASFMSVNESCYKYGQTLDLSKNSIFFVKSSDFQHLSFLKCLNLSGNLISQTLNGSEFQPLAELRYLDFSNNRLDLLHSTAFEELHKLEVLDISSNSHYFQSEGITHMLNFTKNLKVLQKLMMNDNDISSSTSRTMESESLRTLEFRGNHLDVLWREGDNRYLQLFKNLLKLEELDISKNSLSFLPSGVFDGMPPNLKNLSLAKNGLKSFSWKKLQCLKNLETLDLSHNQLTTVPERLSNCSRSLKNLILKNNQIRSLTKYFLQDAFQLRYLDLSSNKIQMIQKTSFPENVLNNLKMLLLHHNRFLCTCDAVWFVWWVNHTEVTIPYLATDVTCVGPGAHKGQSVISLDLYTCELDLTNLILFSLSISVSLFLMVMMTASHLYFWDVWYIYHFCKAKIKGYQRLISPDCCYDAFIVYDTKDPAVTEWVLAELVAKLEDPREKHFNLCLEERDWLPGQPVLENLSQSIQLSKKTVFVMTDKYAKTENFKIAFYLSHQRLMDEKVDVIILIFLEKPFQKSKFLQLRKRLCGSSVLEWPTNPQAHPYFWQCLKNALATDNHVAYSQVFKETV
How it was run: as §1

human TLR8 = target: T3, human TLR8 (Homo sapiens, UniProt Q9NR97); experiment: TLR8 inhibition reporter assay (HEK-Blue SEAP reporter, R848 stimulation); details: HEK-Blue cells overexpressing human TLR8, SEAP reporter, R848 15.9 μM, 22 hour incubation
T3 construct: host or cells: HEK-Blue cells
T3 sequence (Q9NR97 27-1041): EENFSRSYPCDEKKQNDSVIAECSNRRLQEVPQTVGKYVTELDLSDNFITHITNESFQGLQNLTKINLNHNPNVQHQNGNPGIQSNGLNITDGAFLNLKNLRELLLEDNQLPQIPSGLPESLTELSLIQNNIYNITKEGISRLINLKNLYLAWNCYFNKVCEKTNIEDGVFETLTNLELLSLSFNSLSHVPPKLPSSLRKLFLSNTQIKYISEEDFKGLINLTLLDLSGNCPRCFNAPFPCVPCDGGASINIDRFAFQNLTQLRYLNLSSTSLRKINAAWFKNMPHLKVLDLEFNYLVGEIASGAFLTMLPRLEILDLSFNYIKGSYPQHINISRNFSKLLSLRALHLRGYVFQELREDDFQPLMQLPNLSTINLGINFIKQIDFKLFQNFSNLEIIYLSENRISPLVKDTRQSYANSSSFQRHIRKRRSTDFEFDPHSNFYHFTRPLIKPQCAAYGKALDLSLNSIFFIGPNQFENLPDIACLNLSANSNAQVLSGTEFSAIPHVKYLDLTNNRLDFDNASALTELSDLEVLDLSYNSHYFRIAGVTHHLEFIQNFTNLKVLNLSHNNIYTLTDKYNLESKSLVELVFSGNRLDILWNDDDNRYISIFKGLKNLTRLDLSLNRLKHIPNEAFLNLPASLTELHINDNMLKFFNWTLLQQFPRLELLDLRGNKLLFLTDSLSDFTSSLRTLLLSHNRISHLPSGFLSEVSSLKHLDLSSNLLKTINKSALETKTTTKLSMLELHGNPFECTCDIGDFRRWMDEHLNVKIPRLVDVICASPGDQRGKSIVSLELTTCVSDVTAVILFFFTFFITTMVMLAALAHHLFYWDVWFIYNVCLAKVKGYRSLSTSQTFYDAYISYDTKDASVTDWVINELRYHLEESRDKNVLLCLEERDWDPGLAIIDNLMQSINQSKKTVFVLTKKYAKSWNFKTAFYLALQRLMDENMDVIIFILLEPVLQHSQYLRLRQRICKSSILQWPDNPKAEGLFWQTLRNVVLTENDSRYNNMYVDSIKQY
How it was run: as §1

IC50 (human TLR9) [nM] | IC50 (human TLR7) [nM] | IC50 (human TLR8) [nM] | Structure (SMILES)
9640 | 18.6 | 14.5 | CNC(=O)CN1CCC(c2ccc3[nH]c(-c4cc(C)c(=O)n(C)n4)c(C(C)C)c3c2)CC1 [Example 118, 2-(4-(2-(1,5-dimethyl-6-oxo-1,6-dihydropyridazin-3-yl)-3-isopropyl-1H-indol-5-yl)piperidin-1-yl)-N-methylacetamide]
1160 | 11.4 | 14.9 | Cc1cc(-c2[nH]c3ccc(C4CCN(CC(=O)N5CC[C@H](O)C5)CC4)cc3c2C(C)C)cn(C)c1=O [Example 119, (S)-5-(5-(1-(2-(3-hydroxypyrrolidin-1-yl)-2-oxoethyl)piperidin-4-yl)-3-isopropyl-1H-indol-2-yl)-1,3-dimethylpyridin-2(1H)-one]
851 | 7.4 | 11.5 | Cc1cc(-c2[nH]c3ccc(C4CCN(CC(=O)N5CC[C@@H](O)C5)CC4)cc3c2C(C)C)cn(C)c1=O [Example 120, (R)-5-(5-(1-(2-(3-hydroxypyrrolidin-1-yl)-2-oxoethyl)piperidin-4-yl)-3-isopropyl-1H-indol-2-yl)-1,3-dimethylpyridin-2(1H)-one]
≥ 50000 | 40.7 | 102 | Cc1cc(-c2[nH]c3ccc(C4CCN(CC(=O)N5CCC(=O)N5)CC4)cc3c2C(C)C)cn(C)c1=O [Example 121, 5-(3-isopropyl-5-(1-(2-oxo-2-(3-oxopyrazolidin-1-yl)ethyl)piperidin-4-yl)-1H-indol-2-yl)-1,3-dimethylpyridin-2(1H)-one]
14700 | 4.9 | 15.7 | Cc1cc(-c2[nH]c3ccc(C4CCN(CC(=O)N5CCCC5)CC4)cc3c2C(C)C)cn(C)c1=O [Example 122, 5-(3-isopropyl-5-(1-(2-oxo-2-(pyrrolidin-1-yl)ethyl)piperidin-4-yl)-1H-indol-2-yl)-1,3-dimethylpyridin-2(1H)-one]
23800 | 7 | 8 | Cc1cc(-c2[nH]c3ccc(C4CCN([C@@H]5CCNC5=O)CC4)cc3c2C(C)C)cn(C)c1=O [Example 123, (R)-5-(3-isopropyl-5-(1-(2-oxopyrrolidin-3-yl)piperidin-4-yl)-1H-indol-2-yl)-1,3-dimethylpyridin-2(1H)-one]
≥ 50000 | 9.7 | 11.3 | Cc1cc(-c2[nH]c3ccc(C4CCN(CC(=O)NCC(C)(C)O)CC4)cc3c2C(C)C)cn(C)c1=O [Example 124, 2-(4-(2-(1,5-dimethyl-6-oxo-1,6-dihydropyridin-3-yl)-3-isopropyl-1H-indol-5-yl)piperidin-1-yl)-N-(2-hydroxy-2-methylpropyl)acetamide]
33600 | 3.7 | 5.2 | Cc1cc(-c2[nH]c3ccc(C4CCN(C5CCN(C)C5=O)CC4)cc3c2C(C)C)cn(C)c1=O (stereo not drawn) [Example 127, 5-(3-isopropyl-5-(1-(1-methyl-2-oxopyrrolidin-3-yl)piperidin-4-yl)-1H-indol-2-yl)-1,3-dimethylpyridin-2(1H)-one]
977 | 3 | 5.7 | COc1cc(-c2[nH]c3ccc(C4CCN(CC(=O)N(C)C)CC4)cc3c2C(C)C)cn(C)c1=O [Example 128, 2-(4-(3-isopropyl-2-(5-methoxy-1-methyl-6-oxo-1,6-dihydropyridin-3-yl)-1H-indol-5-yl)piperidin-1-yl)-N,N-dimethylacetamide]
2930 | 5 | 8 | CNC(=O)CN1CCC(c2ccc3[nH]c(-c4cc(OC)c(=O)n(C)c4)c(C(C)C)c3c2)CC1 [Example 129, 2-(4-(3-isopropyl-2-(5-methoxy-1-methyl-6-oxo-1,6-dihydropyridin-3-yl)-1H-indol-5-yl)piperidin-1-yl)-N-methylacetamide]
8510 | 290 | 25.9 | Cc1c(-c2[nH]c3ccc(C4CCN(CC(=O)N(C)C)CC4)cc3c2C(C)C)nn(C)c(=O)c1C [Example 130, 2-(4-(3-isopropyl-2-(1,4,5-trimethyl-6-oxo-1,6-dihydropyridazin-3-yl)-1H-indol-5-yl)piperidin-1-yl)-N,N-dimethylacetamide]
